Assay results taken from patent US9328099B2, “Cyanomethylpyrazole carboxamides as janus kinase inhibitors” (Merck Sharp & Dohme Corp., priority 2011, dated 2016).
Where two headings read alike, the source gives them in different places.

Target: JAK1 (Homo sapiens (Human), UniProt P23458)
Assay: Jak Biochemical HTRF Assay, JAK1
Settings: read-out: JAK1 IC50
Excerpt: Jak Biochemical HTRF Assay Protocol
Subsequent reagent additions employed an Agilent Bravo.

[1] = HTRF biochemical assay, GST-tagged catalytic domain, top concentration tested […]

Sequence of JAK1 (P23458 875-1153): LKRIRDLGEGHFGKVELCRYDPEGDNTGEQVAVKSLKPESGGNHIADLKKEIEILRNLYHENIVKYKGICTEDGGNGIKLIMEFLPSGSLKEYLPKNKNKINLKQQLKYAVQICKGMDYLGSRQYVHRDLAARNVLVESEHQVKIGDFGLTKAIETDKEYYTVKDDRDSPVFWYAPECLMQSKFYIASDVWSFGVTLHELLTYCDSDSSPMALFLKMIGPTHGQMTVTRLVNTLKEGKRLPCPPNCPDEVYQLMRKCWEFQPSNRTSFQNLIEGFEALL

SMILES | IC50 [1] | IC50
N#CCC1(n2cc(C(N)=O)c(Nc3ccccc3)n2)CN(C(=O)OCCc2cccc3ccccc23)C1 [Example 30-54, 2-naphthalen-1-ylethyl 3-[4-carbamoyl-3-(phenylamino)-1H-pyrazol-1-yl]-3-(cyanomethyl)azetidine-1-carboxylate] | 375 nM | 
CC(C)(C)COC(=O)N1CC(CC#N)(n2cc(C(N)=O)c(Nc3ccccc3)n2)C1 [Example 30-56, 2,2-dimethylpropyl 3-[4-carbamoyl-3-(phenylamino)-1H-pyrazol-1-yl]-3-(cyanomethyl)azetidine-1-carboxylate] | 18 nM | 
N#CCC1(n2cc(C(N)=O)c(Nc3ccccc3)n2)CN(C(=O)OCCc2ccccc2)C1 [Example 30-58, 2-phenylethyl 3-[4-carbamoyl-3-(phenylamino)-1H-pyrazol-1-yl]-3-(cyanomethyl)azetidine-1-carboxylate] | 76 nM | 
N#CCC1(n2cc(C(N)=O)c(Nc3ccccc3)n2)CN(C(=O)OC2CCOCC2)C1 [Example 30-63, tetrahydro-2H-pyran-4-yl 3-[4-carbamoyl-3-(phenylamino)-1H-pyrazol-1-yl]-3-(cyanomethyl)azetidine-1-carboxylase] | 11 nM | 
CN1CCN(CCOC(=O)N2CC(CC#N)(n3cc(C(N)=O)c(Nc4ccccc4)n3)C2)CC1 [Example 30-72, 2-(4-methylpiperazin-1-yl)ethyl 3-[4-carbamoyl-3-(phenylamino)-1H-pyrazol-1-yl]-3-(cyanomethyl)azetidine-1-carboxylate] | 72 nM | 
CS(=O)(=O)c1ccc(Nc2nn(C3(CC#N)CN(C(=O)OC4CCCC4)C3)cc2C(N)=O)cc1 [Example 30-74, cyclopentyl 3-(4-carbamoyl-3-{[4-(methylsulfonyl)phenyl]amino}-1H-pyrazol-1-yl)-3-(cyanomethyl)azetidine-1-carboxylate] | 6 nM | 
N#CCC1(n2cc(C(N)=O)c(Nc3ccccc3)n2)CCN(C(=O)c2ccccn2)CC1 [Example 34-9, 1-[4-(cyanomethyl)-1-(pyridin-2-ylcarbonyl)piperidin-4-yl]-3-(phenylamino)-1H-pyrazole-4-carboxamide] | 18 nM | 
N#CCC1(n2cc(C(N)=O)c(Nc3ccccc3)n2)CCN(C(=O)c2cnccn2)CC1 [Example 34-11, 1-[4-(cyanomethyl)-1-(pyrazin-2-ylcarbonyl)piperidin-4-yl]-3-(phenylamino)-1H-pyrazole-4-carboxamide] | 12 nM | 
N#CCC1(n2cc(C(N)=O)c(Nc3ccccc3)n2)CN(C(=O)c2ccccn2)C1 [Example 34-38, 1-[3-(cyanomethyl)-1-(pyridin-2-ylcarbonyl)azetidin-3-yl]-3-(phenylamino)-1H-pyrazole-4-carboxamide] | 59 nM | 
CCOC(=O)C(C)NC(=O)N1CC(CC#N)(n2cc(C(N)=O)c(Nc3ccccc3)n2)C1 (centres unmarked) [Example 38-9, ethyl N-({3-[4-carbamoyl-3-(phenylamino)-1H-pyrazol-1-yl]-3-(cyanomethyl)azetidin-1-yl}carbonyl)alaninate] | 38 nM | 
Cc1ccc(F)cc1NC(=O)N1CC(CC#N)(n2cc(C(N)=O)c(Nc3ccccc3)n2)C1 [Example 38-38, 1-{3-(cyanomethyl)-1-[(5-fluoro-2-methylphenyl)carbamoyl]azetidin-3-yl}-3-(phenylamino)-1H-pyrazole-4-carboxamide] | 13 nM | 
N#CCC1(n2cc(C(N)=O)c(Nc3ccnc(F)c3)n2)CCC(Nc2ccccn2)CC1 (stereo not drawn) [Example 40-4, Cis or trans 1-[1-(cyanomethyl)-4-(pyridin-2-ylamino)cyclohexyl]-3-[(2-fluoropyridin-4-yl)amino]-1H-pyrazole-4-carboxamide] | 102 nM | 
N#CCC1(n2cc(C(N)=O)c(Nc3ccc(S(=O)(=O)C(F)F)cc3)n2)CCC(Nc2cccnc2)CC1 (stereo not drawn) [Example 40-8, Cis or trans 1-[1-(cyanomethyl)-4-(pyridin-3-ylamino)cyclohexyl]-3-({4-[(difluoromethyl)sulfonyl]phenyl}amino)-1H-pyrazole-4-carboxamide] |  | 0.3 nM
N#CCC1(n2cc(C(N)=O)c(Nc3ccnc(F)c3)n2)CCC(N2CCC(O)CC2)CC1 (stereo not drawn) [Example 40-13, Cis or trans 1-[1-(cyanomethyl)-4-(4-hydroxypiperidin-1-yl)cyclohexyl]-3-[(2-fluoropyridin-4-yl)amino]-1H-pyrazole-4-carboxamide] | 115 nM | 
N#CCC1(n2cc(C(N)=O)c(Nc3ccnc(F)c3)n2)CCC(Nc2ccccn2)CC1 (stereo not drawn) [Example 40-22, Cis or trans 1-[1-(cyanomethyl)-4-(pyridin-2-ylamino)cyclohexyl]-3-[(2-fluoropyridin-4-yl)amino]-1H-pyrazole-4-carboxamide] | 4 nM | 
N#CCC1(n2cc(C(N)=O)c(Nc3ccnc(F)c3)n2)CCC(Nc2ccccc2F)CC1 (stereo not drawn) [Example 40-24, Cis or trans 1-{1-(cyanomethyl)-4-[(2-fluorophenyl)amino]cyclohexyl}-3-[(2-fluoropyridin-4-yl)amino]-1H-pyrazole-4-carboxamide] | 8 nM | 

Continued, in another order:

IC50 [1] | SMILES | IC50
0.1 nM | N#CCC1(n2cc(C(N)=O)c(Nc3ccc(F)cc3)n2)CCN(C(=O)CC(F)(F)F)CC1 [Example 35-1, 1-(4-(Cyanomethyl)-1-(3,3,3-trifluoropropanoyl)piperidin-4-yl)-3-(4-fluorophenylamino)-1H-pyrazole-4-carboxamide] | 
3 nM | N#CCC1(n2cc(C(N)=O)c(Nc3ccccc3)n2)CCN(S(=O)(=O)c2ccc(C(F)(F)F)cc2)CC1 [Example 37-13, 1-[4-(cyanomethyl)-1-{[4-(trifluoromethyl)phenyl]sulfonyl}piperidin-4-yl]-3-(phenylamino)-1H-pyrazole-4-carboxamide] | 
2 nM | CCc1ccc(NC(=O)N2CC(CC#N)(n3cc(C(N)=O)c(Nc4ccccc4)n3)C2)cc1 [Example 38-34, 1-{3-(cyanomethyl)-1-[(4-ethylphenyl)carbamoyl]azetidin-3-yl}-3-(phenylamino)-1H-pyrazole-4-carboxamide] | 
0.2 nM | N#CCC1(n2cc(C(N)=O)c(Nc3ccccc3)n2)CCN(C(=O)Nc2ccc(C#N)cc2)CC1 [Example 38-47, 4-[4-carbamoyl-3-(phenylamino)-1H-pyrazol-1-yl]-4-(cyanomethyl)-N-(4-cyanophenyl)piperidine-1-carboxamide] | 
0.1 nM | N#CCC1(n2cc(C(N)=O)c(Nc3ccc(C(F)(F)F)cc3)n2)CCC(N2CC(F)C2)CC1 (centres unmarked) [Example 39-2, 1-[1-(cyanomethyl)-4-(3-fluoroazetidin-1-yl)cyclohexyl]-3-{[4-(trifluoromethyl)phenyl]amino}-1H-pyrazole-4-carboxamide] | 
0.04 nM | N#CCC1(n2cc(C(N)=O)c(Nc3ccnc(F)c3)n2)CCC(Nc2ccccc2F)CC1 (stereo not drawn) [Example 40-17, Cis or trans 1-{1-(cyanomethyl)-4-[(2-fluorophenyl)amino]cyclohexyl}-3-[(2-fluoropyridin-4-yl)amino]-1H-pyrazole-4-carboxamide] | 
0.8 nM | N#CCC1(n2cc(C(N)=O)c(Nc3ccc(F)cc3)n2)CCC(Nc2ccc(F)c(F)c2)CC1 (stereo not drawn) [Example 40-35, Cis or trans 1-{1-(cyanomethyl)-4-[(3,4-difluorophenyl)amino]cyclohexyl}-3-[(4-fluorophenyl)amino]-1H-pyrazole-4-carboxamide] | 
